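These data come from cells grown in 96-well plates and exposed to compound for 48 hours at five concentrations. GI50: concentration for 50% inhibition of growth.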 Calls of active or inactive are those of the source. No stated cut-off is given here; in the data, active = GI50 up to about 1.1 µM and inactive = higher.
Columns and labels:
Test in all cases: DTP human tumour cell line panel, 48 h
MDA-MB-231 = test system: MDA-MB-231
BT-549 = test system: BT-549
SNB-78 = test system: SNB-78
DLD-1 = test system: DLD-1
KM-20L2 = test system: KM-20L2
HOP-18 = test system: HOP-18
DMS-273 = test system: DMS-273

Row | SMILES | GI50 (MDA-MB-231) | GI50 (BT-549) | other results
1 | O=C(Nc1ccc(Nc2ccc3c(c2)C(=O)c2ccccc2C3=O)c2c1C(=O)c1ccccc1C2=O)c1ccccc1 | 46.6 µM (inactive) | > 100 µM (inactive) | 
2 | O=C1CCCC2(c3ccccc3)Nc3ccccc3N12 (stereo not given) | > 100 µM (inactive) | > 100 µM (inactive) | 
3 | Oc1cc(O)c2c(c1)O[C@H](c1cc(O)c(O)c(O)c1)[C@@H](O)C2 [GALLOCATECHIN] | 18.7 µM (inactive) | 23.6 µM (inactive) | 
4 | O=C1C(NCCN2CCOCC2)=C(Cl)C(=O)c2ncccc21 | 1.58 µM (inactive) | 1.29 µM (inactive) | 
5 | C=CCOC(=O)N1c2ccc(O[Si](C)(C)C(C)(C)C)cc2[C@@]23O[C@@]24[C@@H]1C#C/C=C\C#C[C@]3(O)C(OC)(OC)C[C@@H]4C | > 100 µM (inactive) | > 100 µM (inactive) | 
6 | CCN(CC)CCNc1ccc([N+](=O)[O-])c2nc3ccc(OC)cc3c(N)c12 | 1.16 µM (inactive) | 1.4 µM (inactive) | 
7 | S=C(N/N=C\C(=N/NC(=S)N1CCCCC1)c1ccccc1)N1CCCCC1 | 2.43 µM (inactive) | 1.88 µM (inactive) | 
8 | COc1ccnc2c1C(=O)c1nc3ccccc3c3ccnc-2c13 | 0.21 µM (active) | 0.397 µM (active) | 
9 | COc1cccc([C@@]2(O)c3c(ccc(O)c3OC)[C@H]2OC)c1OC |  |  | GI50 (SNB-78): 49.7 µM (inactive); GI50 (DLD-1): 35.7 µM (inactive); GI50 (KM-20L2): 38.9 µM (inactive)
10 | COc1ccc(-c2c3c(n(C4OC(COC(C)=O)C(OC(C)=O)C(OC(C)=O)C4OC(C)=O)c(=S)c2C#N)CCC3)cc1 (stereo not given) |  | 96.4 µM (inactive) | 
11 | OC1OC(c2ccc[nH]2)C(F)(F)C(F)(F)C1(F)F (stereo not given) | > 100 µM (inactive) | > 100 µM (inactive) | 
12 | CC(C)CCCC(C)[C@H]1CC[C@H]2n3c(nnc3-c3ccccc3)CCC[C@]12C (stereo not given in full) | 15 µM (inactive) | 19.8 µM (inactive) | 
13 | C1CNOCCCONCCCNOCCCONC1 | 26.8 µM (inactive) | 69.5 µM (inactive) | 
14 | Cc1ccc2c(c1)C(C(=O)N[C@@H]1C(=O)N3[C@@H]1SC(C)(C)[C@@H]3C(=O)O)OCCC2 (stereo not given in full) | > 100 µM (inactive) | > 100 µM (inactive) | 
15 | COc1cc2c3c(c1Oc1nnnn1-c1ccccc1)-c1c(ccc4c1OCO4)C[C@H]3N(C)CC2 | 41.8 µM (inactive) |  | 
16 | O=C(Nc1cccc(C(F)(F)F)c1)O/N=C(/Cl)CCl | 17.1 µM (inactive) |  | 
17 | Cn1c(=O)c2ccccc2[n+]2c(-c3cccc([N+](=O)[O-])c3)csc12 | 30.8 µM (inactive) |  | 
18 | COC(=O)C1(c2cc3ccccc3n2S(=O)(=O)c2ccccc2)CC2C=CC1NC2 (stereo not given) | 1.79 µM (inactive) | 2.36 µM (inactive) | 
19 | CCOC(=O)/C=C/CCC(C)(C)COC(C)=O | > 10 µM (inactive) |  | 
20 | CN1CNc2nc(N)n(C)c(=O)c2C1 |  | > 10 µM (inactive) | 
21 | Cc1ccc(OCC2OC(n3cnc4c(Cl)nc(Nc5cc(Cl)cc(Cl)c5)nc43)CC2Oc2ccc(C)cc2)cc1 (stereo not given) | > 100 µM (inactive) | > 100 µM (inactive) | 
22 | O=S(=O)(/N=S(/Nc1ccccc1)C(F)(F)Cl)c1ccccc1 (stereo not given) | > 100 µM (inactive) |  | 
23 | Cc1cn(CCCCCOC(=O)NC(CCCNC(N)=O)C(=O)O)c(=O)[nH]c1=O (stereo not given) | > 100 µM (inactive) | > 100 µM (inactive) | 
24 | Cc1ccc(CC[PH](=O)CCc2ccc(C)nc2)cn1 | > 100 µM (inactive) |  | 
25 | CN(C)CCNS(=O)(=O)N(C)C | > 100 µM (inactive) | > 100 µM (inactive) | 
26 | CSc1nnc(SCc2nn3c(=O)cc(C)nc3s2)s1 | > 100 µM (inactive) | > 100 µM (inactive) | 

Row | SMILES | GI50 (MDA-MB-231) | GI50 (BT-549) | other results
27 | CCOC(=O)C(C(=O)OCC)=C1NC2(c3ccccc3Nc3ccc(C)cc32)C(C#N)S1 (stereo not given) |  | 14 µM (inactive) | 
28 | Nc1nn2c(=O)c3ccccc3nc2s1 |  | 22.6 µM (inactive) | 
29 | ClCc1nc2cc(Cl)ccc2o1 | 3.16 µM (inactive) | 14.3 µM (inactive) | 
30 | O=C(O)CS(=O)(=O)C(c1ccccc1)c1ccccc1 | > 100 µM (inactive) | > 100 µM (inactive) | 
31 | O=C1CNc2cc(N3CCN(c4ccccc4)CC3)ccc2N1 | > 100 µM (inactive) | > 100 µM (inactive) | 
32 | CN(C)CC1CCCCCCCCCCCCC(CN(C)C)C1=O (stereo not given) |  |  | GI50 (HOP-18): 16.2 µM (inactive); GI50 (SNB-78): 13.5 µM (inactive); GI50 (DLD-1): 15.6 µM (inactive); GI50 (DMS-273): 10.4 µM (inactive); GI50 (KM-20L2): 11.9 µM (inactive)
33 | COc1cc2ccc3c4cc(OC)c(OC(C)C)cc4c[n+](C)c3c2cc1OC |  |  | GI50 (HOP-18): 23.4 µM (inactive); GI50 (DLD-1): > 100 µM (inactive); GI50 (KM-20L2): > 100 µM (inactive)
34 | CC(C)CCC[C@@H](C)[C@H]1CC[C@H]2[C@@H]3CC[C@H]4C[C@H](N)CC[C@]4(C)[C@H]3CC[C@]12C | 2.84 µM (inactive) | 23.1 µM (inactive) | 
35 | COC1OC(C(=O)O)C2OC(C)(C)OC12 (stereo not given) | > 100 µM (inactive) | > 100 µM (inactive) | 
36 | N#CCc1nc(C#N)c(N)o1 | > 100 µM (inactive) | > 100 µM (inactive) | 
37 | COc1cccc(C2c3cc4c(cc3OC(Nc3ccccc3)C2C)OCO4)c1O (stereo not given) | 12.7 µM (inactive) | 10.6 µM (inactive) | 
38 | COc1ccc2c(c1OC)C(C(Cl)(Cl)Cl)N1CCc3cc4c(cc3C1=C2)OCO4 (stereo not given) | 23.5 µM (inactive) | 1.03 µM (active) | 
39 | CN1N=C(Nc2ccccc2)Sc2c1cnn(-c1ccccc1)c2=O |  |  | GI50 (HOP-18): 20 µM (inactive); GI50 (DLD-1): > 100 µM (inactive); GI50 (DMS-273): > 100 µM (inactive); GI50 (KM-20L2): > 100 µM (inactive)
40 | C=C[C@H]1CN2CC[C@H]1C[C@@H]2[C@@H](O)c1ccnc2ccccc12 [CINCHONINE] | > 100 µM (inactive) | > 100 µM (inactive) | 
41 | COc1c2cc([N+](=O)[O-])cc1CNC(=O)CN1CCOCCOCCN(CCOCCOCC1)CC(=O)NC2 | > 100 µM (inactive) | > 100 µM (inactive) | 
42 | O=C(N/N=C(COc1ccc(Cl)cc1)\N=C\c1cccnc1)c1ccncc1 | > 100 µM (inactive) | > 100 µM (inactive) | 
43 | CN(C)c1ccc(/C=C2\N=C(NNc3ccccc3)NC2=O)cc1 | 13.7 µM (inactive) | 30 µM (inactive) | 
44 | Cc1c(O)c(OC2OC(CO)C(O)C(O)C2O)cc2c1C=C[C@@H]1[C@@]2(C)C(=O)C[C@]2(C)[C@@H]([C@@](C)(O)C(=O)CCC(C)(C)O)[C@H](O)C[C@@]12C (stereo not given in full) | 21.1 µM (inactive) | 26.9 µM (inactive) | 
45 | Cc1ccc(/N=C2\SC(=S)N(CCC[N+](C)(C)C)\C2=N/c2ccc(C)cc2)cc1 | 14.3 µM (inactive) | 4.22 µM (inactive) | 
46 | C/C=C(/C)C(=O)O[C@H](C[C@@H](C)[C@H]1CC(c2ccoc2)OC1=O)[C@@]1(C)C(=O)CCC2O[C@]21C (stereo not given in full) | > 100 µM (inactive) | > 100 µM (inactive) | 
47 | O=c1[nH]c(=S)c2cc3c(=S)[nH]c(=O)n(CCC(c4ccccc4)(c4ccccc4)c4ccccc4)c3nc2n1CCC(c1ccccc1)(c1ccccc1)c1ccccc1 | 59.4 µM (inactive) | > 100 µM (inactive) | 
48 | CC1=Nc2c(C#N)ncn2N=C(C)C1 | > 100 µM (inactive) | > 100 µM (inactive) | 
49 | COC1CC(OC2C(C)OC(OC3C(C)OC(OC4C(C)OC(O[C@H]5CC[C@@]6(C)C(=CC[C@]7(O)[C@@H]6C[C@@H](OC(C)=O)[C@@]6(C)[C@]7(O)CC[C@@]6(O)C(C)=O)C5)CC4OC)CC3OC)CC2OC)OC(C)C1O (stereo not given in full) | > 25 µM (inactive) | > 25 µM (inactive) | 
50 | COc1ccccc1N1C(=O)/C(=C\c2cccc(Oc3ccccc3)c2)S(=O)(=O)C1c1ccccc1 (stereo not given) | > 100 µM (inactive) | 26.6 µM (inactive) | 
51 | CC1=C(C)C(=O)OC(C(C)(O)C2(O)CC3OC34C3CC(O)C56OC5C=CC(=O)C6(C)C3CCC42C)C1 (stereo not given) | 1.78 µM (inactive) | 0.914 µM (active) | 
52 | CCc1cc2c(oc3c4ccccc4ccc23)c(=O)[nH]1 |  | > 10 µM (inactive) | 

Reference: ChEMBL document CHEMBL1201862, “PubChem BioAssay data set” (2004)
